In general, IC50 refers to the midpoint of a concentration-inhibition curve. The term inhibition denotes the relative decrease from the control value, in per cent.

For assay [1], the system named is MDA-MB-231. As to the kind of experiment: Antiproliferative activity against human drug tolerant MDA-MB-231/lapatinib cells assessed as inhibition of cell growth in measured after 72 hrs by MTT assay. It counts as functional, cell-based. Particulars: MDA-MB-231, 72 h. On the technique in general: Tetrazolium dyes change colour on reduction, which living cells bring about.

For assay [2], the target named is T1, Aldehyde dehydrogenase 1A1 (Homo sapiens, UniProt P00352).
T1 sequence (P00352 whole entry): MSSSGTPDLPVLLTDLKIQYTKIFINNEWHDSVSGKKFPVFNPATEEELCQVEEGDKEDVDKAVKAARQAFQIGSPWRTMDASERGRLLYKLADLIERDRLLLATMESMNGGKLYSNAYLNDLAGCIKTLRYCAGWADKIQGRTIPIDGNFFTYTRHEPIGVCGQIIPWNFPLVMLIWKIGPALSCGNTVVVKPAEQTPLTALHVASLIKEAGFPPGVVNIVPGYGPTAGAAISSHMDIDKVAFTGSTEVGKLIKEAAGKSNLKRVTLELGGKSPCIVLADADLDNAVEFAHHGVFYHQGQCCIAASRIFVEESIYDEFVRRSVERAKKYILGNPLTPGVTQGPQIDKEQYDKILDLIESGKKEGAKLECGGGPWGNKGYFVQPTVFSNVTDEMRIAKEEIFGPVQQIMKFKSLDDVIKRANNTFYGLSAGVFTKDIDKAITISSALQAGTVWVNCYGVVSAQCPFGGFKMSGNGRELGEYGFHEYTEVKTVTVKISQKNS
Description: Inhibition of ALDH1A1 in human drug-tolerant MDA-MB-231/lapatinib cells assessed as after 24 hrs.

A further assay has as its system MCF7. As to the kind of experiment: Antiproliferative activity against human MCF7 cells assessed as inhibition of cell growth measured after 72 hrs by MTT assay. The conditions noted are these: MCF7, 72 h. The assay is classed as functional, cell-based.
The nature of assay [3]: Resistant factor, ratio of IC50 for antiproliferative activity against drug-tolerant human MDA-MB-231 cells to IC50 for human MDA-MB-231 cells. The assay is classed as functional.
For assay [4], the system named is MDA-MB-231. Description: Antiproliferative activity against human MDA-MB-231 cells assessed as inhibition of cell growth measured after 72 hrs by MTT assay. It counts as functional, cell-based. The conditions noted are these: MDA-MB-231, 72 h.
The test system of the next assay is HUVEC. As to the kind of experiment: Antiproliferative activity against human HUVEC cells assessed as inhibition of cell growth in measured after 72 hrs by MTT assay. The assay is classed as cell-based.
Assay [5] deals with MDA-MB-231. As to the kind of experiment: Antiproliferative activity against drug-tolerant human MDA-MB-231/lapatinib cells assessed as CD44+/CD24- cells measured at 20 uM after 24 hrs by MTT assay. The assay is classed as functional.
Assay [6] has as its system MDA-MB-231. As to the kind of experiment: Inhibition of cell migration in human drug-tolerant MDA-MB-231/lapatinib cells at 20 uM. The assay is classed as functional.
In assay [7] the test system is MDA-MB-231. Description: Inhibition of Wnt/beta-Catenin signaling in drug-tolerant human MDA-MB-231/lapatinib cells assessed as reduction in p-GSK3beta level at 20 uM incubated for 24 hrs by Western blot analysis. (In general: In western blotting, separated proteins are transferred to a membrane and probed.)
Assay [8] relates to MDA-MB-231. Description: Inhibition of Wnt/beta-Catenin signaling in drug-tolerant human MDA-MB-231/lapatinib cells assessed as reduction in beta-catenin level at 20 uM incubated for 24 hrs by Western blot analysis.
Assay [9] deals with MDA-MB-231. Description: Antiproliferative activity against drug-tolerant human MDA-MB-231/lapatinib cells assessed as CD44-positive cells measured after 24 hrs by MTT assay. The assay is classed as functional, cell-based. Particulars: MDA-MB-231, 24 h.

The source made the active and inactive calls. The calls are words filed in the database; no cut-off is given here.

For `CC(=O)c1cc2c(o1)C(=O)c1ccccc1C2=O` [NAPABUCASIN], the IC50 with MDA-MB-231 [1] was determined as 9.68 µM; in [2], 0.425 µM; in the assay on MCF7, 11.4 µM; in the assay on MDA-MB-231 [4], 11 µM; in the assay with HUVEC, 41.3 µM. Further, in assay [3], the “Ratio IC50” value is reported as 0.88.
Regarding `CS(=O)(=O)CCN(Cc1ccc(-c2ccc3ncnc(Nc4ccc(OCc5cccc(F)c5)c(Cl)c4)c3c2)o1)C(=O)CCCC(=O)OCCN1CCN(CCCN2c3ccccc3Sc3ccc(Cl)cc32)CC1`, the IC50 in the assay on MDA-MB-231 [1] was determined as 5.74 µM; in the assay with MCF7, 7.38 µM; with MDA-MB-231 [4] it was 4.51 µM; in the assay with HUVEC, 100 µM. In assay [3], the “Ratio IC50” value was determined as 1.27.
Taken in the same sequence, the figures for `CS(=O)(=O)CCN(Cc1ccc(-c2ccc3ncnc(Nc4ccc(OCc5cccc(F)c5)c(Cl)c4)c3c2)o1)C(=O)CCCC(=O)OCCN1CCN(CCCN2c3ccccc3Sc3ccc(C(F)(F)F)cc32)CC1` were 7.12 µM, 9.16 µM, 6.58 µM, 43.4 µM and 1.08.
`CS(=O)(=O)CCNCc1ccc(-c2ccc3ncnc(Nc4ccc(OCc5cccc(F)c5)c(Cl)c4)c3c2)o1` [LAPATINIB]: the half-inhibitory concentration (IC50) in the assay with MDA-MB-231 [1] stood at 29.4 µM; with MCF7 it was 12.6 µM; in the assay with MDA-MB-231 [4], 5.86 µM; with HUVEC, 47.3 µM; in the assay on MDA-MB-231 [9], 30.8 µM. Further, the values for the inhibition at 20 µM with MDA-MB-231 [5] and with MDA-MB-231 [6] were 15.7% and 52.6%, respectively. Moreover, the inhibition result in the assay on MDA-MB-231 [7] and with MDA-MB-231 [8] was “Active” each time.
